Earlier results on 1 molecule are cited in paper PMC10401071 (Cancer Discovery, 2023).

Each structure is given as a SMILES string.

In this data set the test system is WDLPS and DDLPS. The settings on record: patients with WDLPS and DDLPS; cited from earlier work.

As for `COc1cccc2c1C(=O)c1c(O)c3c(c(O)c1C2=O)C[C@@](O)(C(=O)CO)C[C@@H]3O[C@H]1C[C@H](N)[C@H](O)[C@H](C)O1` [doxorubicin], the overall survival is on record as around 9 months.
